Experimental data published in the supplement of paper PMC4862054.

Legend:
Conditions in all cases: incubation time: 72 h
HCC1937 [1] = experiment: drug sensitivity score (DSS), CellTiter-Blue viability (DSS (AUC-based score)); higher = stronger viability inhibition; extreme values may be limits of the assay
Description: (§1)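 DSRT with the CellTiter-Blue (resazurin reduction) viability readout, fluorescence 560/590 nm, 72 h incubation. Plates were normalised to DMSO and benzethonium chloride controls. DSS is computed from the area under the fitted dose-response curve (5 or 9 concentrations).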

HDQ-P1 [2] = experiment: as above
Description: as §1

MDA-MB-453 [3] = experiment: as above
Description: as §1

CAL-148 = experiment: as above
Description: as §1

MFM-223 = experiment: as above
Description: as §1

CAL-85-1 [4] = experiment: as above
Description: as §1

BT-474 [5] = experiment: as above
Description: as §1

HCC1143 = experiment: as above
Description: as §1

SK-BR-3 = experiment: as above
Description: as §1

CAL-51 [6] = experiment: as above
Description: as §1

BT-549 = experiment: as above
Description: as §1

MDA-MB-436 = experiment: as above
Description: as §1

CAL-120 = experiment: as above
Description: as §1

DU-4475 = experiment: as above
Description: as §1

MDA-MB-468 [7] = experiment: as above
Description: as §1

MDA-MB-231 = experiment: as above
Description: as §1

HCC1599 [8] = experiment: as above
Description: as §1

Hs578T = experiment: as above
Description: as §1

HCC1937 [9] = experiment: drug sensitivity score (DSS), CellTiter-Glo (DSS (AUC-based score)); higher = stronger drug effect (viability inhibition or cytotoxicity); extreme values may be limits of the assay
Method in brief: (§2)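 The area under the fitted dose-response curve was used to calculate the drug sensitivity score. Cells from breast cancer lines were incubated for 72 h in 384-well plates with compound at 5 concentrations spaced 10-fold over a 10,000-fold range specific to each compound. Plates were read for CellTox Green and then CellTiter-Glo, and normalised to 0.1 % DMSO and a positive kill control.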

HDQ-P1 [10] = experiment: as above
Method in brief: as §2

MDA-MB-453 [11] = experiment: as above
Method in brief: as §2

CAL-85-1 [12] = experiment: as above
Method in brief: as §2

BT-474 [13] = experiment: as above
Method in brief: as §2

CAL-51 [14] = experiment: as above
Method in brief: as §2

MDA-MB-468 [15] = experiment: as above
Method in brief: as §2

HCC1599 [16] = experiment: as above
Method in brief: as §2

SMILES | drug sensitivity score (HCC1937 [1]) | drug sensitivity score (HDQ-P1 [2]) | drug sensitivity score (MDA-MB-453 [3]) | drug sensitivity score (CAL-148) | drug sensitivity score (MFM-223) | drug sensitivity score (CAL-85-1 [4]) | drug sensitivity score (BT-474 [5]) | drug sensitivity score (HCC1143) | drug sensitivity score (SK-BR-3) | drug sensitivity score (CAL-51 [6]) | drug sensitivity score (BT-549) | drug sensitivity score (MDA-MB-436) | drug sensitivity score (CAL-120) | drug sensitivity score (DU-4475) | drug sensitivity score (MDA-MB-468 [7]) | drug sensitivity score (MDA-MB-231) | drug sensitivity score (HCC1599 [8]) | drug sensitivity score (Hs578T) | drug sensitivity score (HCC1937 [9]) | drug sensitivity score (HDQ-P1 [10]) | drug sensitivity score (MDA-MB-453 [11]) | drug sensitivity score (CAL-85-1 [12]) | drug sensitivity score (BT-474 [13]) | drug sensitivity score (CAL-51 [14]) | drug sensitivity score (MDA-MB-468 [15]) | drug sensitivity score (HCC1599 [16])
CC(=O)O[C@H]1C(=O)[C@@]2(C)[C@H]([C@H](OC(=O)c3ccccc3)[C@]3(O)C[C@H](OC(=O)[C@H](O)[C@@H](NC(=O)c4ccccc4)c4ccccc4)C(C)=C1C3(C)C)[C@]1(OC(C)=O)CO[C@@H]1C[C@@H]2O [Paclitaxel] | 22.9 | 20.9 | 22.2 | 21.9 | 15 | 18.3 | 19 | 17.6 | 26.6 | 19.3 | 24.7 | 15.8 | 22.2 | 18.3 | 16.4 | 21.4 | 3.04 | 24.4 | 10.5 | 11.5 | 9.73 | 22.8 | 17.2 | 18.9 | 23.5 | 14.2
CC(C)(C)c1cc(NC(=O)Nc2ccc(-c3cn4c(n3)sc3cc(OCCN5CCOCC5)ccc34)cc2)no1 [Quizartinib] | 0 | 0 | 0 | 0 | 0 | 0 | 0 | 0 | 0 | 0 | 3.75 | 0 | 0 | 0 | 0 | 0 | 0.62 | 0 | 0 | 0 | 0 | 0 | 0 | 0 | 0 | 0
O=C(c1ccc(OCCN2CCCCC2)cc1)c1c(-c2ccc(O)cc2)sc2cc(O)ccc12 [Raloxifene] | 0 | 0 | 1.25 | 0 | 0 | 0 | 0 | 0 | 0 | 0 | 0 | 0 | 0 | 0 | 0 | 0 | 0 | 0 | 0 | 0 | 0 | 1.62 | 0.666 | 0 | 2.72 | 1.37
Cn1c(=O)c(F)c(Nc2ccc(I)cc2F)c2c(=O)n(C[C@@H](O)CO)cnc21 [TAK-733] | 0 | 3.87 | 3.27 | 0 | 5.03 | 7.69 | 0 | 8.4 | 0 | 3.52 | 0 | 0 | 4.61 | 29.3 | 0 | 18.1 | 0 | 1.73 | 3 | 10.1 | 0 | 6.4 | 6.85 | 8.36 | 3.59 | 0
CCS(=O)(=O)c1cccc(-c2cc(C(=O)NC3CCN(C)CC3)c(C)c3[nH]c4ncc(C)cc4c23)c1 [TAK-901] | 6.44 | 5.84 | 10.7 | 0 | 10.3 | 5.05 | 0 | 8.44 | 0 | 8.9 | 8.46 | 1.92 | 10 | 3.52 | 0.762 | 9 | 4.14 | 6.31 | 0 | 3.52 | 0 | 0 | 6.57 | 0 | 12.3 | 0
CCCC(CCC)C(=O)O [Valproic acid] | 0 | 0 | 0 | 0 | 0 | 0 | 0 | 0 | 0 | 0 | 0 | 0 | 0 | 0 | 0 | 0 | 0 | 0 | 0 | 0 | 1.51 | 0 | 0 | 1.6 | 0 | 0
